In patent US20210147371A1, “OXADIAZOLINE DERIVATIVES” (Bayer Aktiengesellschaft, priority 2018, published 2021):
Where two headings read alike, the source gives them in different places. Blank lines part the entries; values can stand above or below the compound they belong to.

Assay: Log P by HPLC on reversed phase columns (EEC directive 79/831 Annex V.A8)
Assay type: physicochemical
Protocol: Measurement of Log P values was performed according to EEC directive 79/831 Annex V.A8 by HPLC (High Performance Liquid Chromatography) on reversed phase columns with the following methods: • [^a]
If more than one Log P value is available within the same method, all the values are given and separated by “+”.
Calibration was done with straight-chain alkan2-ones (with 3 to 16 carbon atoms) with known Log P values (measurement of Log P values using retention times with linear interpolation between successive alkanones). Lambda-max-values were determined using UV-spectra from 200 nm to 400 nm and the peak values of the chromatographic signals.

[1] = method [a]: LC-UV, acidic range, 0.1% formic acid in water and acetonitrile, compounds of formula (I), read-out: Log P
[2] = reversed phase HPLC columns, method [a]: LC-UV, acidic range, 0.1% formic acid in water and acetonitrile, compounds of formula (I), read-out: Log P

Compound: CN(C)C(=O)Oc1ccc(C2=NOC(C(F)(F)F)N2)cc1 (stereo not shown) [Compound I-03, 4-[5-(Trifluoromethyl)-4,5-dihydro-1,2,4-oxadiazol-3-yl]phenyl dimethylcarbamate]
chromatographic logP [1]: 2.19

Compound: CC(=O)N1C(c2ccc(OC(=O)N(C)C)cc2)=NOC1C(F)(F)F (stereo not shown) [Compound I-16, 4-[Acetyl-5-(trifluoromethyl)-4,5-dihydro-1,2,4-oxadiazol-3-yl]phenyl dimethylcarbamate]
chromatographic logP [1]: 2.62

chromatographic logP [2]: 3
Compound: FC(F)(F)C1NC(c2ccc3c(cnn3Cc3ccccc3)c2)=NO1 (stereo not shown) [Compound I-23, 1-Benzyl-5-[(trifluoromethyl)-4,5-dihydro-1,2,4-oxadiazol-3-yl]-2H-indazole]

chromatographic logP [2]: 2.69
Compound: FC(F)(F)C1NC(c2ccc3nn(Cc4ccccc4)cc3c2)=NO1 (stereo not shown) [Compound I-24, 2-Benzyl-5-[(trifluoromethyl)-4,5-dihydro-1,2,4-oxadiazol-3-yl]-2H-indazole]

Compound: CN(C)C(=O)Oc1ccc(-c2noc(C(F)(F)F)n2)cc1 [IV-05, 4-[5-(Trifluoromethyl)-1,2,4-oxadiazol-3-yl]phenyl dimethylcarbamate]
chromatographic logP (method [a]: LC-UV, acidic range, 0.1% formic acid in water and acetonitrile, intermediates of formula (IV), read-out: LogP): 3.37

chromatographic logP (reversed phase HPLC columns, method [a]: LC-UV, acidic range, 0.1% formic acid in water and acetonitrile, intermediates of formula (IV), read-out: LogP): 4.03
Compound: FC(F)(F)c1nc(-c2ccc3nn(Cc4ccccc4)cc3c2)no1 [IV-15, 2-Benzyl-5-[5-(trifluoromethyl)-1,2,4-oxadiazol-3-yl]-1H-indazole]

chromatographic logP: 4.39
Compound: FC(F)(F)c1nc(-c2ccc3c(cnn3Cc3ccccc3)c2)no1 [IV-17, 1-Benzyl-5-[5-(trifluoromethyl)-1,2,4-oxadiazol-3-yl]-1H-indazole]
